# Source: US20120003191A1, “VALPROIC ACID, DERIVATIVES, ANALOGUES, AND COMPOSITIONS INCLUDING SAME AND METHODS FOR THEIR THERAPEUTIC USE” (priority 2009, published 2012)
# Tests used:
# mTOR = assay: Western blotting of activated mTOR in α7+/− myotubes; assay type: cell-based, mouse; details: VPA for 48 or 72 hours
# Method: (§1) α7^+/− myogenic cells were cultured on 1% gelatin-coated plastic plates in Ham's F-10 growth medium (20% FBS, 0.5% chick embryo extract, 5 ng/ml bFGF, 2 mM glutamine, 100 U/ml penicillin and 100 μg/ml streptomycin). After six passages, cells were grown in DMEM containing 20% FBS, 0.5% chick embryo extract, 2 mM glutamine, 100 U/ml penicillin and 100 μg/ml streptomycin. Differentiation was induced by switching the medium to DMEM containing 2% horse serum and antibiotics when cells attained 90% confluence. After 48 hours of differentiation, 2 mM VPA was added and supplied fresh every 24 hours. Wortmannin was used at 100 nM and added fresh every 24 hours.
# (§2) Cell lysates of differentiating cells on 60 mm dishes were prepared as follows: the cells were washed twice with PBS and 200 μl Triton X-100 lysis buffer (2% Triton X-100, 20 mM Tris-Cl, pH 7.4, 150 mM NaCl, 1 mM EDTA, 1 mM EGTA, 2.5 mM NaPPi, 1 mM β-glycerophosphate, 1 mM sodium vanadate, 1:200 Protease Inhibitor Cocktail (EMD Chemicals, San Diego, Calif.) and 1 mM PMSF) were added. […] Protein concentrations were determined by the Bradford assay. […] The supernatants were collected and protein concentrations were determined spectrophotometrically at OD260 and OD280. […] ImageQuant analysis software (Molecular Dynamics, Sunnyvale, Calif.) was used to quantify band intensity.
# α7B integrin = assay: Western blotting of α7B integrin in α7+/− myotubes; assay type: cell-based, mouse; details: 2 mM VPA for 72 hours
# Method: as §1, §2
# type VI collagen = assay: Western blotting of type VI collagen in quadriceps; assay type: in vivo, mouse; details: 240 mg/kg i.p. twice daily for 5 weeks
# Method: (§3) mdx/utrn−/− mice lack both dystrophin and utrophin, and were bred and genotyped as reported in Burkin, et al., Enhanced expression of the alpha 7 beta 1 integrin reduces muscular dystrophy and restores viability in dystrophic mice, J. Cell Biol. 152:1207-18 (2001). 240 mg/kg body weight of VPA was injected intraperitoneally twice daily into mdx/utrn^−/− mice (n=9) starting at 3 weeks of age, for a period of 5 weeks. Control mice were injected with saline (n=9). Body-weights were determined daily.
# as §2, with “added. The cells were scraped and transferred into Eppendorf tubes, the cell suspensions were triturated and centrifuged at 8000×g at 4° C. for 10 minutes, and the supernatants were collected.” for “added.”
# mdx/utrn−/− mice = assay: Masson's trichrome staining of quadriceps cryosections; assay type: in vivo, mouse; details: 240 mg/kg i.p. twice daily for 5 weeks
# Method: as §3, with “daily. Masson's trichrome staining kit (American MasterTech Scientific Inc., Lodi, Calif.) was used to stain 8 μm muscle cryosections, as per the manufacturer's instructions.” for “daily.”
# [1] = humans; cited from earlier work
# α7 integrin = assay: Western blotting of α7 integrin in muscle extracts of mdx/utrn−/− mice; assay type: in vivo, mouse; details: 240 mg/kg i.p. twice daily for 5 weeks
# Method: as §3
# as §2, with “added. The cells were scraped and transferred into Eppendorf tubes, the cell suspensions were triturated and centrifuged at 8000×g at 4° C. for 10 minutes, and the supernatants were collected.” for “added.”
# Akt [2] = assay: Western blotting of activated and total Akt in quadriceps of mdx/utrn−/− mice; assay type: in vivo, mouse; details: 240 mg/kg i.p. twice daily for 5 weeks
# Method: as §3
# as §2, with “added. The cells were scraped and transferred into Eppendorf tubes, the cell suspensions were triturated and centrifuged at 8000×g at 4° C. for 10 minutes, and the supernatants were collected.” for “added.”
# Akt [3] = assay: Western blotting of activated and total Akt in α7+/− myotubes; assay type: cell-based, mouse
# Method: as §1, with “After 48 hours of differentiation, 2 mM VPA was added and supplied fresh every 24 hours.” left out
# To test whether Akt activation by VPA in α7^+/− myotubes is dependent on PI3K, α7^+/− cells were differentiated for 48 hours and treated for 72 hours with 2 mM VPA with or without 100 nM Wortmannin. Fresh drugs were added every 24 hours. Phase-contrast micrographs of the cultures were captured at the end of 72 hours of treatment. To determine status of Akt activation in the cultures, α7^+/− myotubes were treated as above and protein extracts were made at the end of 72 hours of treatment using a 2% Triton X-100 extraction buffer (see below). Immunoblotting for phospho- and total Akt were done as detailed below.
# Cell lysates of differentiating cells on 60 mm dishes were prepared as follows: the cells were washed twice with PBS and 200 μl Triton X-100 lysis buffer (2% Triton X-100, 20 mM Tris-Cl, pH 7.4, 150 mM NaCl, 1 mM EDTA, 1 mM EGTA, 2.5 mM NaPPi, 1 mM β-glycerophosphate, 1 mM sodium vanadate, 1:200 Protease Inhibitor Cocktail (EMD Chemicals, San Diego, Calif.) and 1 mM PMSF) were added. The cells were scraped and transferred into Eppendorf tubes, the cell suspensions were triturated and centrifuged at 8000×g at 4° C. for 10 minutes, and the supernatants were collected. Lysates from mouse skeletal muscle were prepared as follows: the quadriceps muscles were dissected out, snap-frozen in liquid nitrogen and pulverized using a mortar and pestle. The powdered muscles were collected in Eppendorf tubes, 500 μl of Triton X-100 lysis buffer were added, rotated at 4° C. for 30 minutes, centrifuged at 8000×g for 10 minutes and the supernatants were collected. Protein concentrations were determined by the Bradford assay. SDS extracts of muscle were made by boiling powdered muscle in extraction buffer (100 mM Tris-Cl, pH 8.0, 10% SDS, 10 mM EDTA and 10% glycerol) for 10 minutes, vortexing vigorously, and centrifuging at 8000×g for 10 minutes. The supernatants were collected and protein concentrations were determined spectrophotometrically at OD260 and OD280. SDS-PAGE was carried out using 50 μg of protein for each sample and separated proteins were transferred to nitrocellulose membranes. For western blotting using antibodies against signaling proteins, membranes were blocked in 5% BSA in TBST for 2 hours at room temperature. For all other blots, incubations were done in 5% milk in TBST overnight at 4° C. The membranes were incubated overnight at 4° C. with primary antibodies diluted 1:1000 in 1% BSA in TBST. After washing in 1% BSA in TBST, blots were incubated for 1 hour in HRP-conjugated secondary antibodies diluted 1:5000 in 1% BSA in TBST. Blots were processed using the ECL kit (Amersham Biosciences, Piscataway, N.J.) and bands were visualized with Kodak Biomax MR film (Kodak, Rochester, N.Y.). ImageQuant analysis software (Molecular Dynamics, Sunnyvale, Calif.) was used to quantify band intensity.
# p70S6K = assay: Western blotting of activated p70S6K in α7+/− myotubes; assay type: cell-based, mouse; details: VPA for 48 or 72 hours
# Method: as §1, §2
smiles,measurement,setting,value
"CCCC(CCC)C(=O)O [VPA, valproic acid]",levels of activated mTOR,mTOR,higher levels
same,α7B integrin isoform increase,α7B integrin,1.5 fold
same,less type VI collagen in muscle than control mice,type VI collagen,approximately 3 fold
same,collagen staining in quadriceps compared to controls,mdx/utrn−/− mice,lower intensity of collagen staining
same,half life,[1],approximately 14 hours
same,"α7 integrin in muscle extracts, saline versus VPA injected mice",α7 integrin,did not show changes
same,levels of activated Akt in muscle,Akt [2],Significantly higher levels
same,"levels of activated Akt, time course","Akt [3]; 2 mM VPA daily, extracts every 24 hours up to 144 hours",higher levels of activated Akt at all time-points
same,concentration of maximal Akt activation,Akt [3]; 1 hour exposure,30 mM
same,levels of activated Akt,Akt [3]; VPA for 48 or 72 hours,higher levels
same,higher levels of Akt in VPA treated cultures,Akt [3]; beyond 96 hours,2 to 3 fold
same,time to Akt activation,"Akt [3]; various concentrations of VPA, two-day old differentiating cultures",≤ 1 h
same,levels of activated p70S6K,p70S6K,higher levels
